Measured values: US11802120B2, “Fused cyclic urea derivatives as CRHR2 antagonist” (RaQualia Pharma Inc., priority 2018, dated 2023)

biological target: T1, human CRHR2-alpha (Homo sapiens, UniProt Q13324); test: cAMP functional assay for human CRHR2 (LANCE Ultra cAMP, TR-FRET); format: cell-based; conditions: CHO-K1 cells expressing human CRHR2-alpha, agonist human urocortin2 at EC80, cAMP; read-out: IC50 against CRHR2
T1 sequence (Q13324 1-411): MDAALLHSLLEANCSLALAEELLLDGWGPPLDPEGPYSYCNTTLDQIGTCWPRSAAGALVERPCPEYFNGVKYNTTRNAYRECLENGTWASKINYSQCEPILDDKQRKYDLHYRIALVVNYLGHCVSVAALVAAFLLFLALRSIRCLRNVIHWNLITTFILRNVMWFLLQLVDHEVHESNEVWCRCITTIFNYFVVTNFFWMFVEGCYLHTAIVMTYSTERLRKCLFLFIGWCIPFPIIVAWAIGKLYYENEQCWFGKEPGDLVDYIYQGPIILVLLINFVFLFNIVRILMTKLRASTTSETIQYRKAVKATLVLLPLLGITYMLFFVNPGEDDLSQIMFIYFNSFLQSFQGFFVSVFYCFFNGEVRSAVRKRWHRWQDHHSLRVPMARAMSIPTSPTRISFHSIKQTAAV
Summary of the method: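 First, starved and frozen CHO-K1 cells expressing the receptor are thawed into IBMX-containing HBSS buffer (pH 7.4). Next, compounds are added for 30 min at 25° C. Then agonist at EC80 (urocortin2 or CRF, per receptor) is added for another 30 min, followed by cAMP detection reagents.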

IC50, < 300 nM:
Cc1ncc(Cl)cc1C(=O)N[C@H]1CC[C@H](Cn2c(=O)n(-c3ccc(NCC4CC4)nc3)c3ccccc32)CC1 [Example 105, 5-chloro-N-((1r,4r)-4-((3-(6-((cyclopropylmethyl)amino)pyridin-3-yl)-2-oxo-2,3-dihydro-1H-benzo[d]imidazol-1-yl)methyl)cyclohexyl)-2-methylnicotinamide]
CNc1ncc(-n2c(=O)n(C[C@H]3CC[C@H](NC(=O)c4cc(Cl)cnc4C)CC3)c3ccccc32)cc1Cl [Example 522, 5-chloro-N-((1r,4r)-4-((3-(5-chloro-6-(methylamino)pyridin-3-yl)-2-oxo-2,3-dihydro-1H-benzo[d]imidazol-1-yl)methyl)cyclohexyl)-2-methyl-nicotinamide]
CNC(=O)c1ccc(-n2c(=O)n(C[C@H]3CC[C@H](NC(=O)c4cc(C(F)(F)F)ccc4C)CC3)c3ccccc32)cn1 [Example 532, N-methyl-5-(3-(((1r,4r)-4-(2-methyl-5-(trifluoromethyl)benzamido)cyclohexyl)methyl)-2-oxo-2,3-dihydro-1H-benzo[d]imidazol-1-yl) picolinamide]
COc1ccc(C#N)c(-n2c(=O)n(C[C@H]3CC[C@H](NC(=O)c4cc(Cl)cnc4C(F)F)CC3)c3cccnc32)c1 [Example 507, 5-chloro-N-((1r,4r)-4-((3-(2-cyano-5-methoxyphenyl)-2-oxo-2,3-dihydro-1H-imidazo [4,5-b]pyridin-1-yl)methyl)cyclohexyl)-2-(difluoromethyl) nicotinamide]
COc1ccc(Cl)c(-n2c(=O)n(C[C@H]3CC[C@H](NC(=O)c4cc(Cl)cnc4C(F)F)CC3)c3cnccc32)c1 [Example 631, 5-chloro-N-((1r,4r)-4-((1-(2-chloro-5-methoxyphenyl)-2-oxo-1H-imidazo[4,5-c]pyridin-3(2H)-yl)methyl)cyclohexyl)-2-(difluoromethyl) nicotinamide]
CN(CCO)c1ccc(-n2c(=O)n(C[C@H]3CC[C@H](NC(=O)c4cc(Cl)cnc4C(F)F)CC3)c3ccccc32)cn1 [Example 382, 5-chloro-2-(difluoromethyl)-N-((1r,4r)-4-((3-(6-((2-hydroxyethyl)(methyl)amino)pyridin-3-yl)-2-oxo-2,3-dihydro-1H-benzo[d]imidazol-1-yl)methyl)cyclohexyl)nicotinamide]
Cc1ncc(Cl)cc1C(=O)N[C@H]1CC[C@H](Cn2c(=O)n(-c3ccc(-n4cccn4)cc3)c3ccccc32)CC1 [Example 471, N-((1r,4r)-4-((3-(4-(1H-pyrazol-1-yl)phenyl)-2-oxo-2,3-dihydro-1H-benzo[d]imidazol-1-yl)methyl)cyclohexyl)-5-chloro-2-methylnicotinamide]
Cc1ncc(Cl)cc1C(=O)N[C@H]1CC[C@H](Cn2c(=O)n(-c3ccc4c(Cl)nn(C)c4c3)c3ccccc32)CC1 [Example 208, 5-chloro-N-((1r,4r)-4-((3-(3-chloro-1-methyl-1H-indazol-6-yl)-2-oxo-2,3-dihydro-1H-benzo[d]imidazol-1-yl)methyl)cyclohexyl)-2-methylnico-tinamide]
Cc1ncc(Cl)cc1C(=O)N[C@H]1CC[C@H](Cn2c(=O)n(-c3cccc4cnccc34)c3ccccc32)CC1 [Example 343, 5-chloro-N-((1r,4r)-4-((3-(isoquinolin-5-yl)-2-oxo-2,3-dihydro-1H-benzo[d]imidazol-1-yl)methyl)cyclo-hexyl)-2-methylnicotinamide]
Cn1ccc(-c2cccc(-n3c(=O)n(C[C@H]4CC[C@H](NC(=O)c5cc(Cl)cnc5C(F)F)CC4)c4ccccc43)c2)n1 [Example 700, 5-chloro-2-(difluoromethyl)-N-((1r,4r)-4-((3-(3-(1-methyl-1H-pyrazol-3-yl)phenyl)-2-oxo-2,3-dihydro-1H-benzo[d]imidazol-1-yl)methyl)cyclohexyl) nicotinamide]
Cc1n[nH]c2ccc(-n3c(=O)n(C[C@H]4CC[C@H](NC(=O)c5cc(Cl)cnc5C(F)(F)F)CC4)c4ccccc43)cc12 [Example 260, 5-chloro-N-((1r,4r)-4-((3-(3-methyl-1H-indazol-5-yl)-2-oxo-2,3-dihydro-1H-benzo[d]imidazol-1-yl)methyl)cyclohexyl)-2-(trifluoromethyl)nicotinamide]
O=C(N[C@H]1CC[C@H](Cn2c(=O)n(-c3cnc4ncccc4c3)c3ccccc32)CC1)c1cc(Cl)cnc1C(F)F [Example 393, N-((1r,4r)-4-((3-(1,8-naph-thyridin-3-yl)-2-oxo-2,3-dihydro-1H-benzo[d]imidazol-1-yl)methyl)cyclohexyl)-5-chloro-2-(difluoromethyl) nicotinamide]
CNc1ncc(-n2c(=O)n(C[C@H]3CC[C@H](NC(=O)c4cc(Cl)cnc4C(F)(F)F)CC3)c3ccccc32)cc1C [Example 544, 5-chloro-N-((1r,4r)-4-((3-(5-methyl-6-(methylamino)pyridin-3-yl)-2-oxo-2,3-dihydro-1H-benzo[d]imidazol-1-yl)methyl)cyclo-hexyl)-2-(trifluoromethyl) nicotinamide]
Cc1ncc(Cl)cc1C(=O)N[C@H]1CC[C@H](Cn2c(=O)n(-c3ccnc(N(C)C)c3)c3ccccc32)CC1 [Example 649, 5-chloro-N-((1r,4r)-4-((3-(2-(dimethylamino)pyridin-4-yl)-2-oxo-2,3-dihydro-1H-benzo[d]imidazol-1-yl)methyl)cyclohexyl)-2-methyl-nicotinamide]
CN1CCN(c2cc(-n3c(=O)n(C[C@H]4CC[C@H](NC(=O)c5cc(Cl)cnc5C(F)F)CC4)c4ccccc43)ccn2)C1=O [Example 707, 5-chloro-2-(difluoromethyl)-N-((1r,4r)-4-((3-(2-(3-methyl-2-oxoimidazolidin-1-yl)pyridin-4-yl)-2-oxo-2,3-dihydro-1H-benzo[d]imidazol-1-yl)methyl)cyclohexyl) nicotinamide]
Cc1ncc(Cl)cc1C(=O)N[C@H]1CC[C@H](Cn2c(=O)n(-c3ccc(NCC(F)F)nc3)c3ccccc32)CC1 [Example 437, 5-chloro-N-((1r,4r)-4-((3-(6-((2,2-difluoroethyl)amino)pyridin-3-yl)-2-oxo-2,3-dihydro-1H-benzo[d]imidazol-1-yl)methyl)cyclohexyl)-2-methylnicotinamide]
Cc1ccc(-n2c(=O)n(C[C@H]3CC[C@H](NC(=O)c4cc(Cl)ccc4C)CC3)c3ccccc32)cn1 [Example 267, 5-chloro-2-methyl-N-((1r,4r)-4-((3-(6-methyl-pyridin-3-yl)-2-oxo-2,3-dihydro-1H-benzo[d]imidazol-1-yl)methyl)cyclo-hexyl)benzamide]
O=C(N[C@H]1CC[C@H](Cn2c(=O)n(-c3ccc4cncn4c3)c3ccccc32)CC1)c1cc(Cl)cnc1C(F)(F)F [Example 327, 5-chloro-N-((1r,4r)-4-((3-(imidazo[1,5-a]pyridin-6-yl)-2-oxo-2,3-dihydro-1H-benzo[d]imidazol-1-yl)methyl)cyclohexyl)-2-(trifluoromethyl)nicotinamide]
